# Test results taken from US8685970B2, “Quinolines and related analogs as sirtuin modulators” (GlaxoSmithKline, LLC, priority 2008, dated 2014).
# Molecular target: T1, SIRT1 (Homo sapiens, UniProt Q96EB6)
# T1 sequence (Q96EB6 1-747): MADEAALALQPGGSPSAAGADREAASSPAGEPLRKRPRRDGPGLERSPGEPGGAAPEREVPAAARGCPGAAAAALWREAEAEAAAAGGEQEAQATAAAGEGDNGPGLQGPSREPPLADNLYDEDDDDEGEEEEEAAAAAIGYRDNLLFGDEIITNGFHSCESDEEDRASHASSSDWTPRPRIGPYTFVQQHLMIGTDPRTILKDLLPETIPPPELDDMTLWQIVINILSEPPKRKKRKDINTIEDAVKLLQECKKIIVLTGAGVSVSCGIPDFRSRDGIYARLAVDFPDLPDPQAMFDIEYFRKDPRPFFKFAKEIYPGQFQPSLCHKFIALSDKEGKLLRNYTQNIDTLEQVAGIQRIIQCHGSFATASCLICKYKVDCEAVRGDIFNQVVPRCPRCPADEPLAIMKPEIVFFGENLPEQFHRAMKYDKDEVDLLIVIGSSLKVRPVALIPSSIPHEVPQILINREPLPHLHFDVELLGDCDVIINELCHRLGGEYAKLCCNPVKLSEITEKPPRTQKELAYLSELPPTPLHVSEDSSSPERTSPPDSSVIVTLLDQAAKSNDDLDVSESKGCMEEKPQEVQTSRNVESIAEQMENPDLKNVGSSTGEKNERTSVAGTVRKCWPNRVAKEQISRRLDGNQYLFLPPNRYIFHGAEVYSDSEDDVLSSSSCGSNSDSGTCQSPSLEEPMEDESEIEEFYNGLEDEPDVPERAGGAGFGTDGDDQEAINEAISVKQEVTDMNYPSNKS
# Test: Mass spectrometry based SIRT1 deacetylation assay (activation)
# Type: biochemical
# Settings: 10 nM SIRT1, 0.5 μM peptide substrate, 120 μM βNAD+, 25 min at 25° C.
# Outline: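 Activation reported as EC1.5, the compound concentration producing 150% of DMSO-control deacetylation, plus maximum fold activation. Readout is mass-spectrometric ratio of deacetylated to acetylated p53-based peptide (0.5 μM) after 25 min, 25 °C, with 120 μM βNAD+ and 10 nM His-tagged human SIRT1, pH 8.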
SMILES,% Fold Act. (percent maximum fold activation),EC1.5 (concentration of test compound that results in 150% activation of SIRT1)
O=C(Nc1cccc2ccc(-c3cccc(O)c3)nc12)c1cscn1 [Compound 185],B (Fold Activation <200%),B (EC1.5 1-25 uM)
O=C(Nc1ncnc2ccc(-c3cccc(C(F)(F)F)c3)nc12)c1ccccn1 [Compound 310],A (Fold activation >200%),A (EC1.5<1.0 uM)
O=C(Nc1cccnc1)c1ccc(F)c2ccc(-c3cccc(C(F)(F)F)c3)nc12 [Compound 67],A (Fold activation >200%),A (EC1.5<1.0 uM)
Cc1cc(-c2ccc3cccc(C(=O)Nc4ccccn4)c3n2)no1 [Compound 64],,C (EC1.5>25 uM)
O=C(Nc1nccs1)c1cccc2ccc(-c3cccc(C(F)(F)F)c3)nc12 [Compound 13],A (Fold activation >200%),A (EC1.5<1.0 uM)
Cc1cc(NC(=O)c2cccc3ccc(-c4cccc(C(F)(F)F)c4)nc23)n(C)n1 [Compound 51],A (Fold activation >200%),B (EC1.5 1-25 uM)
Cc1ncccc1-c1ccc2cccc(NC(=O)c3cscn3)c2n1 [Compound 196],A (Fold activation >200%),A (EC1.5<1.0 uM)
O=C(Nc1cc[nH]n1)c1cccc2ccc(-c3cccc(C(F)(F)F)c3)nc12 [Compound 34],A (Fold activation >200%),B (EC1.5 1-25 uM)
O=C(Nc1nc(CN2CCOCC2)cs1)c1cccc2ccc(-c3cccc(C(F)(F)F)c3)nc12 [Compound 177],A (Fold activation >200%),A (EC1.5<1.0 uM)
O=C(Nc1cccc2ccc(-c3ccccc3)nc12)c1cnccn1 [Compound 3],A (Fold activation >200%),A (EC1.5<1.0 uM)
O=C(NC1CCCC1)c1cccc2ccc(-c3cccc(OC4CCNCC4)c3)nc12 [Compound 94],A (Fold activation >200%),B (EC1.5 1-25 uM)
O=C(Nc1ccc(CN2CCOCC2)nc1)c1cccc2ccc(-c3cccc(C(F)(F)F)c3)nc12 [Compound 291],A (Fold activation >200%),A (EC1.5<1.0 uM)
O=C(Nc1nccs1)c1cccc2cnc(-c3cccnc3)nc12 [Compound 280],,C (EC1.5>25 uM)
Cc1cnc(NC(=O)c2cccc3ccc(-c4ccnc(C(F)F)c4)nc23)s1 [Compound 307],,C (EC1.5>25 uM)
O=C(Nc1cccnc1)c1cccc2cnc(-c3cccc(C(F)(F)F)c3)nc12 [Compound 282],,C (EC1.5>25 uM)
O=C(Nc1cccc2ccc(-c3cccc(C(F)(F)F)c3)nc12)c1cocn1 [Compound 195],B (Fold Activation <200%),A (EC1.5<1.0 uM)
O=C(Nc1cccc2ccc(-c3ccccc3)nc12)C1CCNCC1 [Compound 43],,C (EC1.5>25 uM)
O=C(Nc1nccs1)c1cccc2ccc(-c3cccnc3)nc12 [Compound 180],B (Fold Activation <200%),A (EC1.5<1.0 uM)
O=C(Nc1cccc2ccc(-c3cccc(C(F)(F)F)c3)nc12)c1cncs1 [Compound 220],A (Fold activation >200%),A (EC1.5<1.0 uM)

SMILES,% Fold Act. (percent maximum fold activation),EC1.5 (concentration of test compound that results in 150% activation of SIRT1)
CS(=O)(=O)c1cncc(-c2ccc3cccc(NC(=O)c4cscn4)c3n2)c1 [Compound 229],A (Fold activation >200%),B (EC1.5 1-25 uM)
O=C(Nc1cccc2ccc(-c3cc(F)cc(F)c3)nc12)c1cscn1 [Compound 78],,C (EC1.5>25 uM)
O=C(NCc1ccncc1)c1cccc2ccc(-c3cccc(C(F)(F)F)c3)nc12 [Compound 37],B (Fold Activation <200%),B (EC1.5 1-25 uM)
O=C(Nc1cccc2ccc(-c3cccc(N4CCOCC4)c3)nc12)c1cscn1 [Compound 200],A (Fold activation >200%),A (EC1.5<1.0 uM)
O=C(NCc1ccccn1)c1cccc2ccc(-c3cccc(C(F)(F)F)c3)nc12 [Compound 35],B (Fold Activation <200%),B (EC1.5 1-25 uM)
O=C(Nc1cccc(N2CCCC2)n1)c1cccc2ccc(-c3cccc(C(F)(F)F)c3)nc12 [Compound 320],A (Fold activation >200%),A (EC1.5<1.0 uM)
O=C(Nc1cccnn1)c1cccc2ccc(-c3cccc(C(F)(F)F)c3)nc12 [Compound 100],A (Fold activation >200%),A (EC1.5<1.0 uM)
Cc1nc(NC(=O)c2cccc3ccc(-c4cccc(C(F)(F)F)c4)nc23)sc1C [Compound 52],A (Fold activation >200%),A (EC1.5<1.0 uM)
O=C(Nc1nc2ccccc2s1)c1cccc2ccc(-c3cccc(C(F)(F)F)c3)nc12 [Compound 55],A (Fold activation >200%),A (EC1.5<1.0 uM)
O=C(Nc1cccc(CN2CCOCC2)n1)c1cccc2ccc(-c3cccc(C(F)F)c3)nc12 [Compound 287],A (Fold activation >200%),A (EC1.5<1.0 uM)
O=C(Nc1ncnc2ccc(-c3cccc(OC(F)(F)F)c3)nc12)c1ccc(CN2CCCC2)cc1 [Compound 232],A (Fold activation >200%),B (EC1.5 1-25 uM)
FC(F)(F)Oc1cccc(-c2ccc3cccc(NCc4cccnc4)c3n2)c1 [Compound 139],,C (EC1.5>25 uM)
O=C(Nc1nc(CN2CCCC2)cs1)c1cccc2ccc(-c3cccc(C(F)(F)F)c3)nc12 [Compound 147],A (Fold activation >200%),A (EC1.5<1.0 uM)
O=C(Nc1cccc2ccc(-c3cc(F)cc(C(F)(F)F)c3)nc12)c1cscn1 [Compound 169],,C (EC1.5>25 uM)
FC(F)(F)c1cccc(-c2ccc3cccc(NCc4cccnc4)c3n2)c1 [Compound 135],,C (EC1.5>25 uM)
FC(F)(F)c1ccc(-c2ccc3cccc(NCc4cccnc4)c3n2)cc1 [Compound 171],,C (EC1.5>25 uM)
c1cncc(CNc2cccc3ccc(-c4cccc(N5CCOCC5)c4)nc23)c1 [Compound 172],,C (EC1.5>25 uM)
O=C(Nc1cccnc1)c1cccc2cc(C(F)(F)F)c(-c3ccccc3)nc12 [Compound 193],,C (EC1.5>25 uM)
O=C(Nc1cccc2ccc(-c3cccc(OC(F)(F)F)c3)nc12)c1cnccn1 [Compound 8],B (Fold Activation <200%),A (EC1.5<1.0 uM)
